For one data set, the system named is BALB/c mice. Nature of the data set: Safe use evaluation in vivo (MTD, symptoms, blood biochemistry, histopathology). Details: key to piloerection / ataxia / prostration / tremor / excitation / saber-like tail / stooping / hyper/hypoventilation / drop of eyelids / lacrimation / convulsion: + (mild); ++ (moderate); +++ (severe). The conditions noted are these: for ALP / ALT / AST / Amylase / Creatinine / Glucose / Urea: plasma 48 h after MTD i.p. An excerpt:
(§1) Mild to moderate signs of intoxication could be observed once the MTD (maximum tolerated dose) was reached. In vivo, MTD is described as the highest dose of a given compound that can be administered before showing signs of toxicity (based on the same dose regimen or series) and whose excess would be expected to be fatal, yielding unreliable results. Therefore, a staged approach (including core and intermediate dose levels) has become a suitable strategy in this regard.
(§2) The symptoms described in Tables S1 (in Supplementary Materials) and S2 (in Supplementary Materials) diminished spontaneously within 2 h. After observing these symptoms, MTD thresholds were set at 100, 200, 100, 200, 2000, and 650 mg/kg for compounds 4, 5, 6, 7, 8, and 10, respectively. Animals receiving MTD were further examined by necropsy 48 h after administration. Plasma (reflecting biochemical changes in blood), intestine with mesentery (site of administration), and liver and kidney (elimination organs) were collected to evaluate the toxic potential of the tested compounds. For evaluation of the impact of the compounds on organ function, we performed blood biochemistry test 48 h after administration. The test focused on seven important indicators: glucose and amylase for normal function of pancreas, alanine aminotransferase (ALT), aspartate aminotransferase (AST), and alkaline phosphatase (ALP) for the normal function of liver, and urea and creatinine for the normal function of kidneys. […] According to Thoolen et al., focal necrosis can be occasionally seen in untreated rodents and therefore is not pathognomonic of hepatotoxicity, which is consistent with our findings.
(§3) Both male and female BALB/c mice (Velaz s r.o., Prague, Czech Republic) with an average weight of 21 ± 0.8 g and 21 ± 0.8 g, respectively, were selected for the safe use evaluation in vivo. The mice were housed in environmentally controlled breeding units (Faculty of Military Health Sciences vivarium; temperature 21 ± 1 °C, 12/12 h light/dark cycle) with access to food (Cerea corp., Pardubice, Czech Republic) and water ad libitum. The acclimatization period of the mice was at least 10 days before each experiment. All experimental procedures and protocols were reviewed and approved by the Ethics Committee of the Faculty of Military Health Sciences in Hradec Kralove, University of Defence in Brno. Compounds 2, 3, 4, 5, 6, 7, 8, 9, and 10 were dissolved in physiological saline solution (B. Braun Melsungen AG, Melsungen, Germany) and injected intraperitoneally (i.p.) into the corresponding mouse groups, which were composed of two males and two females. Several doses were administered to determine the maximum tolerated dose (MTD), which was assessed by close observation for signs of toxicity within the first two hours after administration of the compounds, and then regularly over the following 48 h. The observed symptoms were registered according to the laboratory Animal Science Association UK guidelines (for a detailed description, see [36]. After 48 h, the surviving animals were euthanized with CO2 and evaluated by basic macroscopic necropsy. Venous blood was collected into heparinized tubes (Scanlab Systems, Prague, Czech Republic) and the plasma was separated in a U-320R centrifuge (Boeco, Hamburg, Germany) to further evaluate the toxic potential of the tested compounds. The concentrations of glucose, urea, and creatinine and the levels of alanine aminotransferase (ALT), aspartate aminotransferase (AST), alkaline phosphatase (ALP), and amylase were evaluated in a qualified biochemical laboratory of the University Hospital Hradec Kralove (Hradec Kralove, Czech Republic). Additionally, intestine, liver, and kidney samples were collected for histopathologic examination. […]

Test in data set [1]: as above
Details: key to piloerection / ataxia / prostration / tremor / excitation / saber-like tail / stooping / hyper/hypoventilation / drop of eyelids / lacrimation / convulsion: + (mild); ++ (moderate); +++ (severe). The conditions noted are these: both sexes, mouse, in vivo, ip; BALB/c mice, i.p., two males and two females per group; read-out: MTD (maximum tolerated dose).
Text: as §1, §2, §3

A short description of data set [2]: WST-1 cytotoxicity test, HT-29. It is filed as cell-based. The settings on record: human, HT-29 cells, 48 h, WST-1, mean ± SD of three experiments, read-out: relative viability (%) compared to untreated control; for viability at 48 h, 10 µM: HT-29, 10 µM; for viability at 48 h, 100 µM: HT-29, 100 µM. How it is done: (§4) In this study, the cytotoxic effects of nine new compounds (2, 3, 4, 5, 6, 7, 8, 9, 10) were tested on 10 human cell lines (nine cancer and one non-cancer cell line). The cell lines were treated with each compound at concentrations of 10 µM and 100 µM for 48 h. The proliferation capacity of the treated cells was determined by WST-1 test and compared against the proliferation rate of the untreated control cells (100%).
(§5) The cell lines Jurkat, MOLT-4, A2780, A549, HT-29, PANC-1, HeLa, MCF-7, SAOS-2, and MRC-5 (all purchased from Sigma Aldrich, Czech Republic) were included in this study. All cell lines were maintained according to the provider’s guidelines, and plated and treated in 96-well plates (500 to 30 × 10^3 cells per well). The tested compounds 2, 3, 4, 5, 6, 7, 8, 9, and 10 were dissolved in 0.1% DMSO and kept in 10 mM stock solutions. Before use, the stock solution was diluted in culture media at ratios of 1:100 and 1:1000. The studied cell lines were treated with the compounds 2, 3, 4, 5, 6, 7, 8, 9, and 10 at concentrations of 10 and 100 µM for 48 h. Control cells were tested in culture media with and without DMSO (0.1%). The cells were also treated with 1 µM doxorubicin as a cytotoxicity control.
(§6) The WST-1 (2-(4-iodophenyl)-3-(4-nitrophenyl)-5-(2,4-disulfophenyl)-2H-tetrazolium, monosodium salt) test (Roche, Mannheim, Germany) was used according to the manufacturer’s protocol to determine cell viability in all 10 cell lines 48 h after treatment with the tested compounds. The cells were analyzed in a Tecan Infinite M200 spectrometer (Tecan Group, Männedorf, Switzerland) at 440 nm.
(Formazan colour is commonly taken as a measure of viable cells.)

Data set [3] in a line: WST-1 cytotoxicity test, PANC-1. The format is cell-based. The conditions noted are these: human, PANC-1 cells, 48 h, WST-1, mean ± SD of three experiments, read-out: relative viability (%) compared to untreated control; for viability at 48 h, 10 µM: PANC-1, 10 µM; for viability at 48 h, 100 µM: PANC-1, 100 µM. The protocol:
as §4, §5, §6

The mark [4] stands for this setting: female BALB/c mice, animals 1 and 2.
Where [5] appears, read: female mice, at MTD i.p., animals 1 and 2.
The mark [6] stands for this setting: male BALB/c mice, animals 1 and 2.
Setting [7] is: male mice, at MTD i.p., animals 1 and 2.

Values joined by “and” are separate entries in the source; they are usually repeats but may differ in a detail not shown here. Identical values can stand only once.

What is called MTD is the largest dose that counted as tolerated. By viability is commonly meant a read-out of living cells in per cent, often relative to untreated cells. With `Cc1cc(OCC(O)CN2CCN(CCO)CC2)ccc1Cl.Cl.Cl` (stereo not drawn) [Compound 4, 1-(4-chloro-3-methylphenoxy)-3-(4-(2-hydroxyethyl)piperazin-1-yl)propan-2-ol dihydrochloride], the “histopathological change: focal necrosis” value in the data set on BALB/c mice (at MTD i.p., necropsy 48 h after administration, one animal each) is on record as “one small focus”. Further, in the data set on BALB/c mice (setting [4]), the ALP is 83 U/L and 76 U/L; the ALT is reported as 28 U/L; the AST is 93 U/L and 61 U/L; the Amylase is 2632 U/L and 2216 U/L. Besides, in the data set on BALB/c mice (setting [4]), the Creatinine was 78 µg/dL and 79 µg/dL; the Glucose is 237 mg/dL and 228 mg/dL; the Urea is 65 mg/dL and 38 mg/dL. Also, in the data set on BALB/c mice (setting [5]), the drop of eyelids result is recorded as “+”; the prostration entry is “+”; the “weight at 24 h (%)” value is -5.7% and -4.1%; the “weight at 48 h (%)” value was -7.3% and -7.9%. For the same molecule, in the data set with BALB/c mice (setting [6]), the ALP is 77 U/L and 63 U/L; the ALT was 41 U/L and 43 U/L; the AST was 124 U/L and 121 U/L; the Amylase is 1905 U/L and 2464 U/L. Also, in the data set on BALB/c mice (setting [6]), the Creatinine was 79 µg/dL and 45 µg/dL; the Glucose is 226 mg/dL and 227 mg/dL; the Urea is 39 mg/dL and 53 mg/dL. Moreover, in the data set on BALB/c mice (setting [7]), the hyper/hypoventilation entry was “+”; the prostration entry is “+”; the “weight at 24 h (%)” value is -2.6% and -3.0%; the “weight at 48 h (%)” value was -4.6% and -3.7%. The MTD at 48 h in data set [1] was 100 mg/kg. In data set [2], the viability at 48 h, 10 µM came to 100 ± 2% and the viability at 48 h, 100 µM was determined as 83 ± 4%. In addition, in data set [3], the viability at 48 h, 10 µM turned out to be 97 ± 7% and the viability at 48 h, 100 µM turned out to be 111 ± 24%.

In the case of `Cl.Cl.Cl.OCCN1CCN(CCCNc2ccccc2)CC1` [Compound 5, 2-(4-(3-(phenylamino)propyl)piperazin-1-yl)ethanol trihydrochloride], in the data set with BALB/c mice (setting [4]), the ALP is 88 U/L and 80 U/L; the ALT is 29 U/L and 22 U/L; the AST was 65 U/L and 44 U/L; the Amylase was 2531 U/L and 2489 U/L. Also, in the data set on BALB/c mice (setting [4]), the Glucose is 187 mg/dL and 192 mg/dL; the Urea is 65 mg/dL and 58 mg/dL. Moreover, in the data set with BALB/c mice (setting [5]), the ataxia entry is reported as “+”, the drop of eyelids result was “+”, the hyper/hypoventilation entry is listed as “++” and the tremor entry was “+”. Besides, in the data set on BALB/c mice (setting [6]), the ALP was 37 U/L and 38 U/L; the ALT was 28 U/L and 29 U/L; the AST is 58 U/L and 59 U/L; the Amylase was 1757 U/L and 2008 U/L. For the same molecule, in the data set with BALB/c mice (setting [6]), the Creatinine was 23 µg/dL and 21 µg/dL; the Glucose is 185 mg/dL and 175 mg/dL; the Urea was 31 mg/dL and 33 mg/dL. Besides, in the data set on BALB/c mice (setting [7]), the ataxia result is “++ and +”; the drop of eyelids result was “+”; the hyper/hypoventilation result is recorded as “++”; the lacrimation result is “+”. For the same molecule, in the data set on BALB/c mice (setting [7]), the prostration entry is “++”, the saber-like tail entry is “+” and the tremor entry is on record as “++”. The MTD at 48 h in data set [1] amounted to 200 mg/kg. Moreover, in data set [2], the viability at 48 h, 10 µM was determined as 91 ± 2% and the viability at 48 h, 100 µM was determined as 109 ± 2%. In data set [3], the viability at 48 h, 10 µM was 86 ± 16% and the viability at 48 h, 100 µM was found to be 115 ± 7%.

In the case of `Cl.Cl.Cl.OCCN1CCN(CCCNc2cccc3ccccc23)CC1` [Compound 6, 2-(4-(3-(naphthalen-1-ylamino)propyl)piperazin-1-yl)ethanol trihydrochloride], in the data set with BALB/c mice (setting [4]), the ALP was 86 U/L and 95 U/L; the ALT was 29 U/L and 27 U/L; the AST was 53 U/L and 50 U/L; the Amylase was 2922 U/L and 2835 U/L. In the data set on BALB/c mice (setting [4]), the Creatinine was 22 µg/dL and 34 µg/dL; the Glucose was 199 mg/dL and 212 mg/dL; the Urea was 65 mg/dL and 55 mg/dL. For the same molecule, in the data set on BALB/c mice (setting [5]), the ataxia result was “++”, the drop of eyelids result is “+”, the hyper/hypoventilation entry is reported as “++” and the prostration result was “+”. Besides, the stooping entry in the data set with BALB/c mice (setting [5]) is recorded as “++”. In the data set on BALB/c mice (setting [6]), the ALP is 38 U/L and 36 U/L; the ALT is 28 U/L and 25 U/L; the AST is 64 U/L and 62 U/L; the Amylase is 2124 U/L and 2086 U/L. In the data set with BALB/c mice (setting [6]), the Creatinine is 45 µg/dL and 23 µg/dL; the Glucose was 130 mg/dL and 177 mg/dL; the Urea is 42 mg/dL and 35 mg/dL. Also, in the data set with BALB/c mice (setting [7]), the ataxia result is reported as “+”, the drop of eyelids result is on record as “+”, the hyper/hypoventilation result is on record as “++” and the piloerection result is “+”. In the data set on BALB/c mice (setting [7]), the prostration entry is listed as “+”; the stooping result is recorded as “++”; the tremor entry was “+”; the “weight at 48 h (%)” value was -2.3% and -3.0%. For the same molecule, the MTD at 48 h in data set [1] was found to be 100 mg/kg. In data set [2], the viability at 48 h, 10 µM was determined as 86 ± 4% and the viability at 48 h, 100 µM came out at 97 ± 4%. Besides, in data set [3], the viability at 48 h, 10 µM came to 92 ± 11% and the viability at 48 h, 100 µM was found to be 111 ± 5%.

Regarding `Cl.Cl.OC(CNc1ccccc1)CNc1ccccc1` [Compound 9, 1,3-bis(phenylamino)propan-2-ol dihydrochloride], in data set [2], the viability at 48 h, 10 µM amounted to 102 ± 5% and the viability at 48 h, 100 µM is 148 ± 2%. Also, in data set [3], the viability at 48 h, 10 µM was 93 ± 12% and the viability at 48 h, 100 µM is 118 ± 5%.

Values taken from PMC7038073, “Substituted Piperazines as Novel Potential Radioprotective Agents” (Molecules, 2020).
